Columns and labels:
Assay in all cases: relative viability (nuclei count vs DMSO), 5 days (fraction); higher = more cells survive
IPA-3 + Palbociclib = compound: C1=CC=C2C(=C1)C=CC(=C2SSC3=C(C=CC4=CC=CC=C43)O)O [IPA-3] + CC(=O)c1c(C)c2cnc(Nc3ccc(N4CCNCC4)cn3)nc2n(C2CCCC2)c1=O [Palbociclib] (partner 0.5 µM)
How it was run: (§1)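 Values are medians from duplicate plates. Each reflects relative viability, defined as the nuclei count of treated wells over that of vehicle wells. Lung cancer cell lines in 1536-well plates were pin-tool dosed one day after seeding with one drug alone or with a fixed anchor-drug dose plus five library-drug doses (not always all listed) in √10 steps, then fixed, stained and imaged at 4× after 5 days.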

Doramapimod + Phenformin = compound: Cc1ccc(-n2nc(C(C)(C)C)cc2NC(=O)Nc2ccc(OCCN3CCOCC3)c3ccccc23)cc1 [Doramapimod] + N=C(N)NC(=N)NCCc1ccccc1 [Phenformin] (partner 250 µM)
How it was run: as §1

Doramapimod + Olaparib = compound: Cc1ccc(-n2nc(C(C)(C)C)cc2NC(=O)Nc2ccc(OCCN3CCOCC3)c3ccccc23)cc1 [Doramapimod] + O=C(c1cc(Cc2n[nH]c(=O)c3ccccc23)ccc1F)N1CCN(C(=O)C2CC2)CC1 [Olaparib] (partner 8 µM)
How it was run: as §1

RAF265 + Phenformin = compound: Cn1c(Nc2ccc(C(F)(F)F)cc2)nc2cc(Oc3ccnc(-c4ncc(C(F)(F)F)[nH]4)c3)ccc21 [RAF265] + N=C(N)NC(=N)NCCc1ccccc1 [Phenformin] (partner 250 µM)
How it was run: as §1

Cell Line | relative viability (IPA-3 + Palbociclib; first compound 0.2 µM) | relative viability (IPA-3 + Palbociclib; first compound 0.6325 µM) | relative viability (IPA-3 + Palbociclib; first compound 2 µM) | relative viability (IPA-3 + Palbociclib; first compound 6.325 µM) | relative viability (IPA-3 + Palbociclib; first compound 20 µM) | relative viability (Doramapimod + Phenformin; first compound 0.02 µM) | relative viability (Doramapimod + Phenformin; first compound 0.06325 µM) | relative viability (Doramapimod + Phenformin; first compound 0.2 µM) | relative viability (Doramapimod + Phenformin; first compound 0.6325 µM) | relative viability (Doramapimod + Phenformin; first compound 2 µM) | relative viability (Doramapimod + Olaparib; first compound 0.02 µM) | relative viability (Doramapimod + Olaparib; first compound 0.06325 µM) | relative viability (Doramapimod + Olaparib; first compound 0.2 µM) | relative viability (Doramapimod + Olaparib; first compound 0.6325 µM) | relative viability (Doramapimod + Olaparib; first compound 2 µM) | relative viability (RAF265 + Phenformin; first compound 0.01 µM) | relative viability (RAF265 + Phenformin; first compound 0.03162 µM) | relative viability (RAF265 + Phenformin; first compound 0.1 µM) | relative viability (RAF265 + Phenformin; first compound 0.3162 µM) | relative viability (RAF265 + Phenformin; first compound 1 µM)
ABC-1 | 0.733 | 0.81 | 0.392 | 0.748 | 0.851 | 0.208 | 0.232 | 0.278 | 0.281 | 0.221 | 0.851 | 0.68 | 0.698 | 0.983 | 0.935 | 0.21 | 0.223 | 0.228 | 0.187 | 0.21
IA-LM |  |  |  |  |  |  |  |  |  |  | 0.797 | 0.81 | 0.724 | 0.708 | 0.875 |  |  |  |  | 
NCI-H322M | 0.48 | 0.452 | 0.433 | 0.525 | 0.514 | 0.813 | 0.782 | 0.852 | 0.909 | 0.828 | 0.849 | 0.827 | 0.864 | 0.857 | 0.884 | 0.759 | 0.815 | 0.44 | 0.366 | 0.269
NCI-H1792 | 0.684 | 0.658 | 0.662 | 0.677 | 0.731 | 0.389 | 0.381 | 0.217 | 0.476 | 0.214 | 0.408 | 0.459 | 0.457 | 0.486 | 0.268 | 0.394 | 0.182 | 0.186 | 0.0818 | 0.0945
LXF-289 | 0.606 | 0.579 | 0.556 | 0.568 | 0.642 | 0.491 | 0.556 | 0.472 | 0.459 | 0.44 | 1.03 | 1.01 | 1.05 | 1.08 | 1.02 | 0.52 | 0.526 | 0.476 | 0.372 | 0.338

— the supplement of paper PMC10307832
